Measurements from PubChem BioAssay (NCI).
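The concentration for 50% growth inhibition is given as GI50. The concentration for full growth arrest is given as TGI.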

Tests used:
Assay in all cases: growth of human tumour cells (NCI), 384-well format
SW-620 colon = test system: SW-620 colon
SK-MEL-2 melanoma = test system: SK-MEL-2 melanoma
RXF 393 renal = test system: RXF 393 renal
RPMI-8226 leukemia = test system: RPMI-8226 leukemia
COLO 205 colon = test system: COLO 205 colon
HCC-2998 colon = test system: HCC-2998 colon
NCI-H460 NSCLC = test system: NCI-H460 NSCLC
HOP-92 NSCLC = test system: HOP-92 NSCLC
ACHN renal = test system: ACHN renal
786-0 renal = test system: 786-0 renal
OVCAR-5 ovarian = test system: OVCAR-5 ovarian
EKVX NSCLC = test system: EKVX NSCLC
SF-539 CNS = test system: SF-539 CNS

| Structure (SMILES) | GI50 (SW-620 colon) | TGI (SW-620 colon) | GI50 (SK-MEL-2 melanoma) | TGI (SK-MEL-2 melanoma) | GI50 (RXF 393 renal) | TGI (RXF 393 renal) | GI50 (RPMI-8226 leukemia) | TGI (RPMI-8226 leukemia) | GI50 (COLO 205 colon) | TGI (COLO 205 colon) | GI50 (HCC-2998 colon) | TGI (HCC-2998 colon) | GI50 (NCI-H460 NSCLC) | TGI (NCI-H460 NSCLC) | GI50 (HOP-92 NSCLC) | TGI (HOP-92 NSCLC) | GI50 (ACHN renal) | TGI (ACHN renal) | GI50 (786-0 renal) | TGI (786-0 renal) | also measured |
| --- | --- | --- | --- | --- | --- | --- | --- | --- | --- | --- | --- | --- | --- | --- | --- | --- | --- | --- | --- | --- | --- |
| Cc1cc(Nc2ccc(NC(=O)c3ccc(Nc4ccnc5ccccc45)cc3)cc2)nc(N)n1 | 250 nM | 580 nM | 199 nM | 386 nM | 750 nM | 1840 nM | 3110 nM | 7870 nM | 206 nM | 352 nM | 541 nM | 1000 nM | 1670 nM | 3150 nM | 539 nM | 1520 nM | 11200 nM | 31000 nM | 872 nM | 2240 nM | GI50 (OVCAR-5 ovarian): 1850 nM; TGI (OVCAR-5 ovarian): 3740 nM; GI50 (EKVX NSCLC): 1230 nM; TGI (EKVX NSCLC): 2670 nM; GI50 (SF-539 CNS): 552 nM; TGI (SF-539 CNS): 1020 nM |
| CNCc1ccccc1-c1csc([C@@H](C)Nc2nc(C)nc3cc(OC)c(OC)cc23)c1 | 1360 nM | 2640 nM | 1320 nM | 2590 nM | 414 nM | 1670 nM | 643 nM | 1980 nM | 1590 nM | 2940 nM | 240 nM | 1070 nM | 1580 nM | 2930 nM | 171 nM | 1290 nM | 1510 nM | 2840 nM | 1240 nM | 2500 nM | GI50 (OVCAR-5 ovarian): 1510 nM; TGI (OVCAR-5 ovarian): 2860 nM; GI50 (EKVX NSCLC): 1100 nM; TGI (EKVX NSCLC): 2320 nM; GI50 (SF-539 CNS): 1140 nM; TGI (SF-539 CNS): 2360 nM |
